Reference: patent US7238688B2, “Piperidine compounds” (Schering Corporation, priority 2001, dated 2007)
pKi: −log10 of the molar value. Several values for one entry are separate records, joined by “and”; a condition that tells them apart may be missing. Identical values can stand only once.

These compounds were tested against T1, H3 receptors (Cavia porcellus, UniProt Q9JI35) (assay: H3-Receptor Binding Assay). Settings: guinea pig brain membranes; 3 nM [3H]R-α-methyl histamine or 3 nM [3H]N-methyl histamine; 30° C. for 30 min.
T1 construct: The source of the H3 receptors in this experiment was guinea pig brain; from tissue; host or cells: guinea pig brain membranes
Protocol: General Procedure for H3-Receptor Binding Assay
The source of the H3 receptors in this experiment was guinea pig brain. The animals weighed 400–600 g. The brain tissue was homogenized with a solution of 50 mM Tris, pH 7.5. The final concentration of tissue in the homogenization buffer was 10% w/v. The homogenates were centrifuged at 1,000×g for 10 min. in order to remove clumps of tissue and debris. The resulting supernatants were then centrifuged at 50,000×g for 20 min. in order to sediment the membranes, which were next washed three times in homogenization buffer (50,000×g for 20 min. each). The membranes were frozen and stored at −70° C. until needed.
All compounds to be tested were dissolved in DMSO and then diluted into the binding buffer (50 mM Tris, pH 7.5) such that the final concentration was 2 μg/ml with 0.1% DMSO. Membranes were then added (400 μg of protein) to the reaction tubes. The reaction was started by the addition of 3 nM[^3H]R-α-methyl histamine (8.8 Ci/mmol) or 3 nM [^3H]N[…] -methyl histamine (80 Ci/mmol) and continued under incubation at 30° C. for 30 min. Bound ligand was separated from unbound ligand by filtration, and the amount of radioactive ligand bound to the membranes was quantitated by liquid scintillation spectrometry.

T1 sequence (Q9JI35 whole entry): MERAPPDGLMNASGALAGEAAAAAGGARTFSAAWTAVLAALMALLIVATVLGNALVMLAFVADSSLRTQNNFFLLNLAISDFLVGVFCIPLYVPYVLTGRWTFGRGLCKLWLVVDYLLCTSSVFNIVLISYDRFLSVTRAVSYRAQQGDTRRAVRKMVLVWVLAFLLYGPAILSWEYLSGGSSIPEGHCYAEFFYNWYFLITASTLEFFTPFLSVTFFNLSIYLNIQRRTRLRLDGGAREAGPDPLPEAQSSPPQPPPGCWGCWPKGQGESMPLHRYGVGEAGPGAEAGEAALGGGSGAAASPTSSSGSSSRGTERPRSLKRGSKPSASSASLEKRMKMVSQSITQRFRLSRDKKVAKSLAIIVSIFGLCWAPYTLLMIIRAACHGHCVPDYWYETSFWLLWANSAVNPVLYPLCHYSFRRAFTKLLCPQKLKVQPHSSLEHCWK

SMILES | pKi
O=C(C1CCN(Cc2ccncc2)CC1)N1CCN(Cc2ccccc2Br)CC1 [Compound 93] | 7.46 to 9.70
O=C(NCCc1ccccc1)c1cccc(CN2CCN(C(=O)C3CCN(Cc4ccncc4)CC3)CC2)c1 [Compound 276] | 7.46 to 9.70
Nc1cc(CN2CCC(C(=O)N3CCN(Cc4c(F)ccc(F)c4F)CC3)CC2)ccn1 [Compound 306] | 7.46 to 9.70 and 7.66 to 8.70
Nc1cc(CN2CCC(C(=O)N3CCN(Cc4cccc(Cl)c4S(=O)(=O)N4CCOCC4)CC3)CC2)ccn1 [Compound 317] | 7.46 to 9.70
Nc1cc(CN2CCC(C(=O)N3CCN(Cc4cc(F)ccc4Br)CC3)CC2)ccn1 [Compound 328] | 7.46 to 9.70
Cc1noc(C)c1CN1CCN(C(=O)C2CCN(Cc3ccnc(N)c3)CC2)CC1 [Compound 331] | 7.46 to 9.70
CN(C)S(=O)(=O)c1cc(F)ccc1CN1CCN(C(=O)C2CCN(Cc3ccnc(N)c3)CC2)CC1 [Compound 332] | 7.46 to 9.70 and 7.66 to 8.70
Nc1cc(CN2CCC(C(=O)N3CCN(Cc4cc(-c5ccc(Cl)cc5)on4)CC3)CC2)ccn1 [Compound 333] | 7.46 to 9.70 and 7.66 to 8.70
Nc1cc(CN2CCC(C(=O)N3CCN(Cc4c(F)cccc4Cl)CC3)CC2)ccn1 [Compound 336] | 7.46 to 9.70 and 7.66 to 8.70
CN(c1ccc(Cl)cc1)S(=O)(=O)c1cc(F)ccc1CN1CCN(C(=O)C2CCN(Cc3ccnc(N)c3)CC2)CC1 [Compound 343] | 7.46 to 9.70
Nc1cc(CN2CCC(C(=O)N3CCN(S(=O)(=O)c4ccc(Cl)cc4)CC3)CC2)ccn1 [Compound 366] | 7.46 to 9.70 and 7.66 to 8.70
CN(C)S(=O)(=O)N1CCN(C(=O)C2CCN(Cc3ccnc(N)c3)CC2)CC1 [Compound 367] | 7.46 to 9.70
Nc1cc(CN2CCC(C(=O)N3CCN(S(=O)(=O)c4ccccc4Cl)CC3)CC2)ccn1 [Compound 374] | 7.46 to 9.70 and 7.66 to 8.70
Nc1cc(CN2CCC(C(=O)N3CCN(S(=O)(=O)c4cc(Cl)cc(Cl)c4)CC3)CC2)ccn1 [Compound 376] | 7.46 to 9.70
